Measurements taken from patent US10179914B2, “CDC25A inhibitor for the treatment of drug resistant cancer or for the prevention of tumor relapse” (INSERM (INSTITUT NATIONAL DE LA SANTÉ ET DE LA RECHERCHE …, priority 2014, dated 2019).

Legend:
[1] = tested on: MOLM-14 cells; experiment: MOLM-14 xenograft in NSG mice, differentiation in vivo; settings: 5 mg/kg/week i.p., two weeks
Experimental: (a) NSG mice were injected with 2 millions MOLM-14 cells, and treated with IRC-083864 at 5 mg/kg/week i.p. (n=4) or with vehicle buffer (n=4) as described in the Methods section. Bone marrow cells were extracted after dissection after two weeks and the expression of CD14 and CD15 on human blasts was followed by flow cytometry analysis. (b) Quantification (mean±SEM, n=4) of CD14 and CD15 expression in response to IRC-083864. (c) Morphological analyses of human cells used in (a). Original magnification ×100.
In vivo experiments. Animals were used in accordance to a protocol reviewed and approved by the Institutional Animal Care and User Ethical Committee of the UMS006 and Region Midi-Pyrénées (Approval#13-U1037-JES08). NOD/LtSz-scid IL-2Rγchainnull (NSG) mice (Sanchez P V et al) were produced at the Genotoul Anexplo platform in Toulouse (France) using breeders obtained from The Charles River Laboratory. Mice were housed in sterile conditions using HEPA filtered micro-isolators and fed with irradiated food and acidified water. Transplanted mice were treated with antibiotics (enrofloxacin) for the duration of the experiment. […] Adult mice (6 or 7-week old) were treated with 20 mg/kg Busulfan (Busilvex, Pierre Fabre, France) by i.p. administration 24 hours before injection of leukemic cells. Cultured MOLM-14 cells were washed in PBS and cleared of aggregates and debris using a 0.2 mm cell filter, and suspended in PBS at a final concentration of 2 million cells per 200 μL of PBS per mouse for i.v. injection. IRC-083864 (5 mg/kg/week) was then administrated to leukemic mice by i.p. injection. Daily monitoring of mice for symptoms of disease (ruffled coat, hunched back, weakness and reduced motility) determined the time of animal euthanasia. Cell differentiation was monitored after two IRC-083864 injections: mice were humanely killed in accordance with IACUC protocols. Bone marrow (mixed from tibias and femurs) were dissected, flushed in PBS and made into single cell suspensions for analysis by flow cytometry and cytospins.

[2] = with these regimens; cited from earlier work
[3] = tested on: TF-1 cells (FLT3 wild type); experiment: Cell proliferation, trypan blue counting, TF-1; format: cell-based, human; settings: 200 nM
Experimental: (a) MV4-11 and MOLM-14 FLT3-ITD positive cells, KG1, HL-60 and TF-1 FLT3 wild type cells, and K562 FLT3 negative cells were cultured in the presence of the CDC25 inhibitor IRC-083864 (200 nM). Cells were harvested each day and counted after trypan blue coloration. The graph represents three independent experiments.
Cell lines and reagents. Human acute myeloid leukemia cell lines MOLM-14 (Matsuo Y et al, Leukemia 1997) (kindly provided by Martin Carroll, University of Pennsylvania, Philadelphia, Pa., USA) MV4-11, K562 (ACC-102 and ACC-10, DSMZ, Braunschweig, Germany) and FLT3-ITD-expressing murine BaF3 cells were cultured in RPMI 1640 medium (Gibco, Life Technologies, Carlsbad, Calif., USA) supplemented with 10% fetal bovine serum (Sigma, Saint Louis, Calif., USA). TF-1 (ATCC-CRL2003) cells were cultured in RPMI 1640 medium with 10% fetal bovine serum and GM-CSF 2 ng/ml. Concerning MOLM-14 cell line, the presence of a monoallelic 21 bp FLT3-ITD mutation and of an MLL-containing ins(11; 9)(q23;p22p23) were verified (Hematology laboratory of Toulouse University Hospital, Prof E. Delabesse and Dr I. Luquet). KG1 and HL-60 (ACC-14 and ACC-3, DSMZ) cell lines were grown in Iscove's Modified Dulbecco's Medium (IMDM, Gibco) plus 20% FBS. All cells were grown in the presence of 100 units/ml of penicillin and streptomycin (Invitrogen) at 37° C. and 5% CO2.

In the case of `Cc1nc2c(s1)C(=O)C=C(NCCCN(C)CCCNC1=CC(=O)c3nc(-c4cc(F)ccc4F)oc3C1=O)C2=O` [IRC-083864], the “CD11b expression on human myeloid cells in bone marrow” value [1] is reported as “no change”, the “CD14 expression on MOLM-14 cells from bone marrow” value [1] is reported as “increased expression” and the “CD15 expression on MOLM-14 cells from bone marrow” value [1] is reported as “unchanged expression”. The “morphology of cytospun human bone marrow cells” value [1] was “monocytic-like nuclear changes”, the apparent toxicity [2] was “No sign of apparent toxicity” and the “proliferation of TF-1” value [3] was “did not decrease”.
